Consider 16 compounds from BindingDB's records for doi:10.1016/j.ejmech.2020.113045 (Rheinische Friedrich-Wilhelms-University of Bonn, 2021).

Molecules are shown by their SMILES.

The nature of one data set: Inhibition of ABCG2 (unknown origin) expressed in MDCK-II cells assessed as potentiation of SN-38-induced cytotoxicity measured after 72 hrs by MTT assay. On the technique in general: Formazan colour is commonly taken as a measure of viable cells.
As to `CNc1cc(Nc2ccc(C#N)cc2)nc(-c2ccccc2)n1`, the EC50 amounted to 0.022 µM.

In the case of `CC(C)Nc1cc(Nc2ccc(C#N)cc2)nc(-c2ccccc2)n1`, the EC50 turned out to be 0.018 µM.

For the compound `CCCNc1cc(Nc2ccc(C#N)cc2)nc(-c2ccccc2)n1`, the concentration giving a half-maximal response (EC50) came to 0.015 µM.

For the compound `CCCCNc1cc(Nc2ccc(C#N)cc2)nc(-c2ccccc2)n1`, the EC50 amounted to 0.03 µM.

`N#Cc1ccc(Nc2cc(-c3ccccc3)nc(-c3ccccc3)n2)cc1`: the EC50 was 0.041 µM.

With `N#Cc1ccc(Nc2cc(Nc3ccccc3)nc(-c3ccccc3)n2)cc1`, the EC50 turned out to be 0.044 µM.

Turning to `N#Cc1ccc(Nc2cc(NCc3ccccc3)nc(-c3ccccc3)n2)cc1`, the EC50 came to 0.026 µM.

Turning to `N#Cc1ccc(Nc2cc(NCCCc3ccccc3)nc(-c3ccccc3)n2)cc1`, the EC50 was 0.067 µM.

As to `N#Cc1ccc(Nc2cc(NCCCCc3ccccc3)nc(-c3ccccc3)n2)cc1`, the EC50 stood at 0.187 µM.

Turning to `N#Cc1ccc(Nc2cc(NCc3ccccn3)nc(-c3ccccc3)n2)cc1`, the EC50 came out at 0.016 µM.

Regarding `N#Cc1ccc(Nc2cc(NCc3cccnc3)nc(-c3ccccc3)n2)cc1`, the concentration for a half-maximal effect (EC50) amounted to 0.044 µM.

Turning to `N#Cc1ccc(Nc2cc(NCc3ccncc3)nc(-c3ccccc3)n2)cc1`, the EC50 was found to be 0.073 µM.

In the case of `N#Cc1ccc(Nc2cc(Nc3ccccc3O)nc(-c3ccccc3)n2)cc1`, the EC50 is 0.147 µM.

Turning to `N#Cc1ccc(Nc2cc(Nc3cccc(O)c3)nc(-c3ccccc3)n2)cc1`, the EC50 turned out to be 0.181 µM.

With `N#Cc1ccc(Nc2cc(Nc3ccc(O)cc3)nc(-c3ccccc3)n2)cc1`, the EC50 turned out to be 0.171 µM.

As to `N#Cc1ccc(Nc2cc(Nc3ccc(C#N)cc3)nc(-c3ccccc3)n2)cc1`, the 50% effective concentration (EC50) stood at 0.231 µM.

A short description of another data set: Inhibition of ABCB1 (unknown origin) expressed in human A2780 ADR cells assessed as potentiation of daunorubicin-induced cytotoxicity measured after 72 hrs by MTT assay.
For the compound `N#Cc1ccc(Nc2cc(Nc3ccccc3O)nc(-c3ccccc3)n2)cc1`, the EC50 was determined as 34.4 µM.

For orientation: EC50 means the concentration needed to bring the measured effect to its halfway point.
